Source: patent publication US20160115542A1, “BIOMARKER OF Nrf2 ACTIVATION” (MOCHIDA PHARMACEUTICAL CO., LTD., priority 2013, published 2016)

Columns and labels:
[1] = test system: HFD-induced obesity model and diabetic db/db model mice; details: cited from earlier work
Nqo1 = experiment: Time-course of hepatic Nqo1 gene expression after single Nrf2 activator administration; assay type: in vivo, mouse; details: db/db mice, single oral administration 30 μmol/kg
Protocol: (§1) Total RNA was extracted from liver tissue using Isogen RNA extract kit (Nippon Gene), and reverse-transcribed to cDNA using SuperScript III (Invitrogen). Quantitative real-time PCR (qPCR) was carried out using TaqMan probes using an ABI 7300 system (Applied Biosystems). Relative expression of genes was normalized against Hprt (hypoxanthine guanine phosphoribosyl transferase) mRNA. The following primers and probes were used: […]
(§2) CDDO-Im was used as the Nrf2 activator, and orally administered to db/db mice in 30 μmol/kg. Blood and tissue were collected under isoflurane anesthesia after certain hours from the administration, and expression of the Nrf2 target gene Nqo1 in liver and plasma FGF21 concentration were measured in the same manner as in the method described in (1-2). The following primers and probes were used: […]

FGF21 [2] = experiment: Time-course of plasma FGF21 concentration after single Nrf2 activator administration; assay type: in vivo, mouse; details: db/db mice, single oral administration 30 μmol/kg
Protocol: (§3) FGF21 plasma concentration was measured using mouse/rat FGF21 Quantikine ELISA Kit (R & D Systems, Minneapolis, Minn., USA).
as §2

mouse Fgf21 reporter = experiment: FGF21 promoter (mouse Fgf21 reporter) luciferase assay in Hepa1 cells; assay type: cell-based; details: 100 nM, 48 hours
Protocol: Cloning of the mouse FGF21 promoter region was performed using a known technique. By using the mouse Fgf21 […] sequence as a template, a sequence (about 2.1 kbp) amplified with the primers 1.1 and 1.2 below was cloned into pGL4.15 vector (Promega) to create a mouse Fgf21 reporter vector.
The mouse Nrf2 cDNA sequence was cloned into pcDNA3.1/V5-His B vector (Invitrogen) to create a mouse Nrf2 expression vector.
Mouse hepatoma cells Hepa1c1c7 (Hepa1) were cultured in Dulbecco's Modified Eagle medium (Wako) supplemented with 10% fetal bovine serum, and 1% penicillin-streptomycin (Gibco). The mouse Fgf21 reporter vector and mouse Nrf2 expression vector, or the mouse Fgf21 reporter vector and an empty vector (mock) were transfected into Hepa1 cells using Lipofectamine 2000 Transfection Reagent (Invitrogen). The cells were cultured for 6 hours, and the medium was removed. The cells were further cultured for 48 hours after adding a medium containing 100 nM of Nrf2 activator CDDO-Im (2-cyano-3,12-dioxooleana-1,9(11)-dien-28-oic acid imidazol) or 0.1% dimethylsulfoxide (vehicle; Wako). Luciferase activity was then measured using a luminometer (Berthold).

[3] = test system: high-fat-diet (HFD)-induced obesity; details: repetitive administration; cited from earlier work
FGF21 [4] = experiment: FGF21 induction by administration of Nrf2 activator in diabetic db/db mice (plasma ELISA, hepatic qPCR); assay type: in vivo, mouse; details: oral 10 mg/kg once a day for 1 week
Protocol: as §3, §1
Using spontaneous diabetic db/db mice, plasma FGF21 concentration and hepatic Fgf21 gene expression level were compared after administration of the Nrf2 activator. CDDO-Im was used as the Nrf2 activator, and orally administered in 10 mg/kg, once a day for 1 week. Blood and tissue were collected under isoflurane anesthesia after certain hours from the administration, and plasma FGF21 concentration and hepatic Fgf21 mRNA expression level were measured in the same manner as in the method described in (1-2).

[5] = test system: HFD-induced insulin resistance and obesity; details: cited from earlier work
[6] = test system: type 2 diabetes model rats; details: cited from earlier work
[7] = test system: STZ-induced type 1 diabetic mice; details: cited from earlier work

## COC(=O)[C@]12CCC(C)(C)C[C@H]1[C@H]1C(=O)C=C3[C@@]4(C)C=C(C#N)C(=O)C(C)(C)[C@@H]4CC[C@@]3(C)[C@]1(C)CC2 [CDDO-Me, 2-cyano-3,12-dioxooleana-1,9(11)-dien-28-oic acid methyl ester]
[1]
  blood glucose level and plasma lipid level: reduce

## CC1(C)CC[C@]2(C(=O)n3ccnc3)CC[C@]3(C)[C@H](C(=O)C=C4[C@@]5(C)C=C(C#N)C(=O)C(C)(C)[C@@H]5CC[C@]43C)[C@@H]2C1 [CDDO-Im, 1-[2-cyano-3,12-dioxooleana-1,9(11)-dien-28-oyl]imidazole]
Nqo1
  Nqo1 gene expression in liver: increased
  time for which increased hepatic Nqo1 expression level was sustained after administration: 48 h
FGF21 [2]
  plasma FGF21 concentration: increased
  time postdose until which increased plasma FGF21 concentration was maintained: 48 h
Mouse Fgf21 reporter; Fgf21 reporter + empty vector (mock)
  luciferase activity enhancement compared with the vehicle: about 2 fold
Mouse Fgf21 reporter; Fgf21 reporter + mouse Nrf2 expression vector
  luciferase activity with transfection of mouse Nrf2 expression vector and addition of compound: further increased
[3]
  high-fat-diet (HFD)-induced obesity: prevents
FGF21 [4]; Nrf2 gene knockout db/db mice
  induction of hepatic FGF21 gene expression level in Nrf2 gene knockout db/db mice: abolished
  induction of plasma FGF21 concentration in Nrf2 gene knockout db/db mice: abolished
FGF21 [4]; db/db mice, vs vehicle
  hepatic FGF21 gene expression level: significantly increased
  plasma FGF21 concentration: significantly increased

## Cc1c(-c2cnccn2)ssc1=S [oltipraz]
[5]
  HFD-induced insulin resistance and obesity: attenuates

## O=C(/C=C/c1ccc(O)c2c1[C@H](C(=O)O[C@H](Cc1ccc(O)c(O)c1)C(=O)O)[C@@H](c1ccc(O)c(O)c1)O2)O[C@H](Cc1ccc(O)c(O)c1)C(=O)O [lithospermic acid B (LAB), lithospermic acid B]
[6]
  β cell injury: protected β cell injury

## C[S+]([O-])CCCCN=C=S (stereo not drawn) [sulforaphane]
[7]
  β cell injury: protected β cell injury
